Source: US20100113366A1, “USE OF PROLINE-RICH PEPTIDE DERIVED FROM HYPOTHALAMUS FOR THE MANUFACTURE OF A MEDICAMENT FOR THE TREATMENT AND/OR PROPHYLAXIS OF CATTLE LEUCOSIS” (priority 2005, published 2010)
Where no end group is shown, it is not given here.

Test system: cows with leucosis
Experiment: hematological and cytomorphological blood indices of cows with leucosis after PRP-1 administration in vivo
Details: 48 h after 1st and 2nd administration; microscopic analysis
Procedure: The cows with leucosis were administered with the PRP-1 solution in concentration 1.57×10^−4 g in 1 ml in a dose of 4×10^−3 ml/kg live weight of animal twice in 48 h.
The blood samples were taken from the jugular vain of animal into the test tubes with anti-coagulant Trilon-B before administration, in 48 h after 1st and 2nd administrations, as well as in 33 days after the 2nd administration. The blood hematomorphological and cytomorphological studies were carried out according to the available methods of veterinary hematology.

## AGAPEPAEPAQPGVY [PRP-1, Ala-Gly-Ala-Pro-Glu-Pro-Ala-Glu-Pro-Ala-Gln-Pro-Gly-Val-Tyr]
  morphological changes of small lymphocytes with high resistance, neutrophils, eosinophils and monocytes in blood smears: no any morphological changes
